Results as given in US7208500B2, “Thienopyridine-phenylacetamides and their derivatives useful as new anti-angiogenic agents” (Agouron Pharmaceuticals, Inc., priority 2003, dated 2007).

Columns and labels:
[1] = tested on: human umbilical vein endothelial cells (HUVEC); assay: HUVEC + VEGF proliferation assay; assay type: cell-based; details: VEGF-stimulated proliferation, final VEGF 6 ng/mL, 72 hours, MTT
Description: This assay determines the ability of a test compound to inhibit the growth factor-stimulated proliferation of human umbilical vein endothelial cells (“HUVEC”). HUVEC cells (passage 3–4, Clonetics, Corp.) were thawed into EGM2 culture medium (Clonetics Corp) in T75 flasks. Fresh EGM2 medium was added to the flasks 24 hours later. Four or five days later, cells were exposed to another culture medium (F12K medium supplemented with 10% fetal bovine serum (FBS), […] endothelial cell growth supplement (ECGS), and 0.1 mg/mL heparin). Exponentially-growing HUVEC cells were used in experiments thereafter. Ten to twelve thousand HUVEC cells were plated in 96-well dishes in […] of rich, culture medium (described above). The cells were allowed to attach for 24 hours in this medium. The medium was then removed by aspiration and […] of starvation media (F12K+1% FBS) was added to each well. After 24 hours, […] of test agent dissolved in 1% DMSO in starvation medium or this vehicle alone was added into each treatment well; the final DMSO concentration was 0.1%. One hour later, […] of VEGF (30 ng/mL) in starvation media was added to all wells except those containing untreated controls; the final VEGF concentration was 6 ng/mL. Cellular proliferation was quantified 72 hours later by MTT dye reduction, at which time cells were exposed for 4 hours MTT (Promega Corp.). Dye reduction was stopped by addition of a stop solution (Promega Corp.) and absorbance at 595 nm was determined on a 96-well spectrophotometer plate reader.

[2] = target: T1, FGF-R1 intracellular kinase domain (Homo sapiens, UniProt P11362, C488A/C584S/L457V); assay: FGF-R spectrophotometric assay; assay type: biochemical; details: 50 nM test compound; read-out: FGF-P (% inh @ 50 nM)
T1 construct: starting from the endogenous methionine residue 456 to glutamate 766; made in house; host or cells: baculovirus vector expression system
Description: The intracellular kinase domain of human FGF-R1 was expressed using the baculovirus vector expression system starting from the endogenous methionine residue 456 to glutamate 766, according to the residue numbering system of Mohammadi et al., Mol. Cell. Biol., 16, 977–989 (1996). In addition, the construct also has the following 3 amino acid substitutions: L457V, C488A, and C584S.
The spectrophotometric assay was carried out as described above for VEGF-R2, except for the following changes in concentration: FGF-R=50 nM, ATP=2 mM, and poly(E4Y1)=15 mM.

[3] = target: T2, unphosphorylated VEGF-R2D50 (FLVK), cytosolic domain of human VEGF-R2 (Homo sapiens, UniProt P35968, DEL940-989/E990V); assay: VEGF-R2 coupled spectrophotometric assay (FLVK); assay type: biochemical
T2 construct: VEGF-R2D50 contains residues 806–939 and 990–1171; made in house; host or cells: baculovirus/insect cell system
Text: This construct determines the ability of a test compound to inhibit tyrosine kinase activity. A construct (VEGF-R2D50) of the cytosolic domain of human vascular endothelial growth factor receptor 2 (VEGF-R2) lacking the 50 central residues of the 68 residues of the kinase insert domain was expressed in a baculovirus/insect cell system. Of the 1356 residues of full-length VEGF-R2, VEGF-R2D50 contains residues 806–939 and 990–1171, and also one point mutation (E990V) within the kinase insert domain relative to wild-type VEGF-R2. Autophosphorylation of the purified construct was performed by incubation of the enzyme at a concentration of […] in the presence of 3 mM ATP and 40 mM MgCl2 in 100 mM HEPES, pH 7.5, containing 5% glycerol and 5 mM DTT, at 4° C. for 2 h. […] See Parast et al., Biochemistry, 37, 16788–16801 (1998).
The production of ADP from ATP that accompanies phosphoryl transfer was coupled to oxidation of NADH using phosphoenolpyruvate (PEP) and a system having pyruvate kinase (PK) and lactic dehydrogenase (LDH). The oxidation of NADH was monitored by following the decrease of absorbance at 340 nm (e340=6.22 cm^−1 mM^−1) using a Beckman DU 650 spectrophotometer. Assay conditions for phosphorylated VEGF-R2D50 (indicated as FLVK-P in the tables below) were the following: 1 mM PEP; […]; 50 units of LDH/mL; 20 units of PK/mL; 5 mM DTT; 5.1 mM poly(E4Y1); 1 mM ATP; and 25 mM MgCl2 in 200 mM HEPES, pH 7.5. Assay conditions for unphosphorylated VEGF-R2D50 (indicated as FLVK in the tables) were the following: 1 mM PEP; […]; 50 units of LDH/mL; 20 units of PK/mL; 5 mM DTT; 20 mM poly(E4Y1); 3 mM ATP; and 60 mM MgCl2 and 2 mM MnCl2 in 200 mM HEPES, pH 7.5. Assays were initiated with 5 to 40 nM of enzyme. Ki values were determined by measuring enzyme activity in the presence of varying concentrations of test compounds. The percent inhibition at 50 nm (% inhibition@50 nm) was determined by linear least-squares regression analysis of absorpbance as a function of time. The binding inhibitions were fitted to equation as described by Morrison. The data were analyzed using Enzyme Kinetic and Kaleidagraph software.

T2 sequence (P35968 with tags, fused parts or gaps DEL940-989/E990V limits assumed): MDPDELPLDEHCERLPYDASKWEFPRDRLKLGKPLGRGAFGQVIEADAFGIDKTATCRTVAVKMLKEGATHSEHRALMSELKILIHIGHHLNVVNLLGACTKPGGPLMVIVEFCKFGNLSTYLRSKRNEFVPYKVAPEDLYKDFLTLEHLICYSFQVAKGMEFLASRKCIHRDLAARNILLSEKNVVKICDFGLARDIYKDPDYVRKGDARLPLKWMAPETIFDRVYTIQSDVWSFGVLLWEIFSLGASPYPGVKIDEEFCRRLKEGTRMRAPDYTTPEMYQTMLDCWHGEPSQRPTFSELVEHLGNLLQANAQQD
T1 sequence (P11362 456-766 L457V/C488A/C584S): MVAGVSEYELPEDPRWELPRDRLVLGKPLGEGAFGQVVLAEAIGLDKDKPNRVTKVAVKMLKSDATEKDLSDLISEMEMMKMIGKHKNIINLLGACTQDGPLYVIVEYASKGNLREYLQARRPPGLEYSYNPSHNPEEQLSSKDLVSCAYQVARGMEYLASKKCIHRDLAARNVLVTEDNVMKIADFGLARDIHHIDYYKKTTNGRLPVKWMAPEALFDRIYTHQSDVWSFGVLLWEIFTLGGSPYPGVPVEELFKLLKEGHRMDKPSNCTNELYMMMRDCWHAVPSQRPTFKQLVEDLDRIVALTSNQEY

SMILES	inhibition at 0.05 µM [2] [%]	Ki [3] [nM]	IC50 [1] [nM]
Cc1cc(C)nc(NC(=O)Cc2ccc(Oc3ccnc4cc(C(=O)N5C[C@@H](O)[C@@H](O)C5)sc34)cc2)c1 [Example 3]	0 to 5		< 1
Cc1cc(C)nc(NC(=O)Cc2ccc(Oc3ccnc4cc(C(=O)N(C)C)sc34)cc2)c1 [Example 7, 7-{4-[(4,6-Dimethyl-pyridin-2-ylcarbamoyl)-methyl]-phenoxy}-thieno[3,2-b]pyridine-2-carboxylic acid dimethylamide]	5 to 10	< 1	< 1
CN(C)C(=O)c1cc2nccc(Oc3ccc(CC(=O)Nc4ccc(Cl)cn4)cc3)c2s1 [Example 8, 7-{4-[(5-Chloro-pyridin-2-ylcarbamoyl)-methyl]-phenoxy}-thieno[3,2-b]pyridine-2-carboxylic acid dimethylamide]	0 to 5	1 to 10	> 10
Cc1ccnc(NC(=O)Cc2ccc(Oc3ccnc4cc(-c5nccn5C)sc34)cc2)c1 [Example 11, 2-{4-[2-(1-Methyl-1H-imidazol-2-yl)-thieno[3,2-b]pyridin-7-yloxy]-phenyl}-N-(4-methyl-pyridin-2-yl)-acetamide]	0 to 5	< 1	> 10
Cn1ccnc1-c1cc2nccc(Oc3ccc(CC(=O)Nc4cc5ccccc5cn4)cc3)c2s1 [Example 12, N-Isoquinolin-3-yl-2-(4-[2-(1-methyl-1H-imidazol-2-yl)-thieno[3,2-b]pyridin-7-yloxy]-phenyl}-acetamide]	5 to 10	< 1	> 10
Cn1ccnc1-c1cc2nccc(Oc3ccc(CC(=O)Nc4ccc(C(F)(F)F)cn4)cc3)c2s1 [Example 13, 2-{4-[2-(1-Methyl-1H-imidazol-2-yl)-thieno[3,2-b]pyridin-7-yloxy]-phenyl}-N-(5-trifluoromethyl-pyridin-2-yl)-acetamide]	5 to 10	< 1	> 10
Cc1cc(C)nc(NC(=O)Cc2ccc(Oc3ccnc4cc(C(=O)N5CCC5)sc34)cc2)c1 [Example 22, 2-{4-[2-(Azetidine-1-carbonyl)-thieno[3,2-b]pyridin-7-yloxy]-phenyl}-N-(4,6-dimethyl-pyridin-2-yl)-acetamide]	0 to 5		< 1
Cc1cc(NC(=O)Cc2ccc(Oc3ccnc4cc(C(=O)N5CCC5)sc34)cc2Cl)nn1C [Example 56, 2-{4-[2-(Azetidine-1-carbonyl)-thieno[3,2-b]pyridin-7-yloxy]-2-chloro-phenyl}-N-(1,5-dimethyl-1H-pyrazol-3-yl)-acetamide]	0 to 5		> 10
Cc1cc(NC(=O)C(O)c2ccc(Oc3ccnc4cc(C(=O)N5CCC5)sc34)cc2)on1 (centres unmarked) [Example 80, 2-{4-[2-(Azetidine-1-carbonyl)-thieno[3,2-b]pyridin-7-yloxy]-phenyl}-2-hydroxy-N-(3-methyl-isoxazol-5-yl)-acetamide]	5 to 10	> 10	
CCCCNC(=O)C(O)c1ccc(Oc2ccnc3cc(C(=O)N4CCC4)sc23)cc1 (centres unmarked) [Example 82, 2-{4-[2-(Azetidine-1-carbonyl)-thieno[3,2-b]pyridin-7-yloxy]-phenyl}-N-butyl-2-hydroxy-acetamide]	0 to 5	> 10	

The next lines start with results.

inhibition at 0.05 µM [2] [%]	Ki [3] [nM]	SMILES	IC50 [1] [nM]
5 to 10	< 1	Cc1cc(C)nc(NC(=O)Cc2ccc(Oc3ccnc4cc(C(=O)N5CC[C@@H](N(C)C)C5)sc34)cc2)c1 [Example 4, 2-{4-[2-((R)-3-Dimethylamino-pyrrolidine-1-carbonyl)-thieno[3,2-b]pyridin-7-yloxy]-phenyl}-N-(4,6-dimethyl-pyridin-2-yl)-acetamide]	1 to 10
5 to 10	< 1	Cc1cc(C)nc(NC(=O)Cc2ccc(Oc3ccnc4cc(C(=O)N(C)CCN(C)C)sc34)cc2)c1 [Example 6, 7-{4-[(4,6-Dimethyl-pyridin-2-ylcarbamoyl)-methyl]-phenoxy}-thieno[3,2-b]pyridine-2-carboxylic acid (2-dimethylamino-ethyl)-methyl-amide]	> 10
5 to 10	< 1	Cc1cc(C)nc(NC(=O)Cc2ccc(Oc3ccnc4cc(-c5nccn5C)sc34)cc2)c1 [Example 9, N-(4,6-Dimethyl-pyridin-2-yl)-2-{4-[2-(1-methyl-1H-imidazol-2-yl)-thieno[3,2-b]pyridin-7-yloxy]-phenyl}-acetamide]	< 1
0 to 5	< 1	Cn1ccnc1-c1cc2nccc(Oc3ccc(CC(=O)Nc4ccc(Cl)cn4)cc3)c2s1 [Example 10, N-(5-Chloro-pyridin-2-yl)-2-{4-[2-(1-methyl-1H-imidazol-2-yl)-thieno[3,2-b]pyridin-7-yloxy]-phenyl}-acetamide]	< 1
0 to 5		O=C(Cc1ccc(Oc2ccnc3cc(C(=O)N4CCC4)sc23)cc1)Nc1ccc2[nH]ncc2c1 [Example 36, 2-{4-[2-(Azetidine-1-carbonyl)-thieno[3,2-b]pyridin-7-yloxy]-phenyl}-N-(1H-indazol-5-yl)-acetamide]	> 10
0 to 5		O=C(Cc1ccc(Oc2ccnc3cc(C(=O)N4CCC4)sc23)cc1)Nc1ccc(N2CCOCC2)nc1 [Example 38, 2{-4-[2-(Azetidine-1-carbonyl)-thieno[3,2-b]pyridin-7-yloxy]-phenyl}-N-(6-morpholin-4-yl-pyridin-3-yl)-acetamide]	> 10
0 to 5	> 10	COC(C(=O)Nc1cc(C)no1)c1ccc(Oc2ccnc3cc(C(=O)N4CCC4)sc23)cc1 (centres unmarked) [Example 79, 2-{4-[2-(Azetidine-1-carbonyl)-thieno[3,2-b]pyridin-7-yloxy]-phenyl}-2-methoxy-N-(3-methyl-isoxazol-5-yl)-acetamide]	
5 to 10	> 10	COC(C(=O)Nc1ccccn1)c1ccc(Oc2ccnc3cc(C(=O)N4CCC4)sc23)cc1 (centres unmarked) [Example 83, 2-{4-[2-(Azetidine-1-carbonyl)-thieno[3,2-b]pyridin-7-yloxy]-phenyl}-2-methoxy-N-pyridin-2-yl-acetamide]	
5 to 10	> 10	O=C(Nc1ccccn1)C(O)c1ccc(Oc2ccnc3cc(C(=O)N4CCC4)sc23)cc1 (centres unmarked) [Example 84, 2-{4-[2-(Azetidine-1-carbonyl)-thieno[3,2-b]pyridin-7-yloxy]-phenyl}-2-hydroxy-N-pyridin-2-yl-acetamide]	
